From patent publication US20190211020A1 (Agency for Science, Technology and Research, priority 2012, published 2019) come the findings set out here.

One assay relates to eIF4E Ser209 phosphorylation in Hela cells. Nature of the assay: MNK cell-based assay (AlphaScreen SureFire, eIF4E Ser209 phosphorylation). The conditions noted are these: Homo sapiens, HeLa, 2 h, read-out: IC50 Hela. The text has this: It has been reported that Ser209 of eIF4E is solely phosphorylated by the MNK enzymes. The ability of compounds to inhibit this process in Hela cells was investigated using the AlphaScreen SureFire® assay platform from Perkin Elmer (Waltham, Mass.). eIF4E phosphorylated on Ser209 is recognized by two antibodies, the first which is fused to a streptavidin coated donor bead binds to an epitope away from Ser209, the second which is fused to a protein A conjugated acceptor bead binds to phosphorylated Ser209. The phosphorylation of eIF4E on Ser209 brings the two antibodies into close proximity and when excited by a laser a singlet oxygen is released by the donor bead which excites the acceptor bead resulting in the emission of light. This enables the monitoring of eIF4E Ser209 phosphorylation and its inhibition in a cellular context.
Hela cells were seeded into microtitre plates (30,000 cells per well) in 100 μl of culture medium and incubated at 37° C. for 24 hours. The media was then removed by aspiration and the cells resuspended in 50 μl of serum free medium containing the test compound and incubated at 37° C. for 2 hours. The culture medium was again removed by aspiration and the cells resuspended in lysis buffer (provided in Perkin Elmer SureFire® Assay Kit). After agitation at 350 rpm for 20 minutes at 22° C., 4 μl was transferred to a 384 well OptiPlate™ (Perkin Elmer, Waltham, Mass.). To each well was added 5 μl of acceptor mix; the plate was sealed and agitated gently at 22° C. for 2 hours. Then, in subdued light, 2 μl of donor mix was added to each well, the plate was sealed, wrapped in aluminum foil and agitated gently at 22° C. for 2 hours. Emission was measured using the EnVision® plate reader (Perkin Elmer, Waltham, Mass.).
Inhibition constants (IC50) were determined by plotting AlphaScreen signal versus log compound concentration and fitting with a non-linear regression algorithm using GraphPad Prism (GraphPad Software Inc.).
For `Cc1cc2ncc(-c3ccc(C#N)cc3)n2cc1-c1ccc(C(=O)N2CCC(C)(N)CC2)cc1` [Example 137, 4-(6-(4-(4-amino-4-methylpiperidine-1-carbonyl)phenyl)-7-methylimidazo[1,2-a]pyridin-3-yl)benzonitrile], the IC50 is less than 1 µM.

The assay is the same for the next values; noted with them: Homo sapiens; eIF4E Ser209 phosphorylation, Hela cells, 2 hours; read-out: IC50 Hela.
With `CS(=O)(=O)NC1CCN(C(=O)c2ccc(-c3ccc4ncc(-c5ccc(C#N)cc5)n4c3)cc2)CC1` [Example 111, N-(1-(4-(3-(4-cyanophenyl)imidazo[1,2-a]pyridin-6-yl)benzoyl)piperidin-4-yl)methanesulfonamide], the IC50 was less than 1 µM.
With `CN(C)C1CCN(C(=O)c2ccc(-c3ccc4ncc(-c5ccc(C#N)cc5)n4c3)cc2)CC1` [Example 112, 4-(6-(4-(4-(dimethylamino)piperidine-1-carbonyl)phenyl)imidazo[1,2-a]pyridin-3-yl)benzonitrile], the IC50 is less than 1 µM.
Turning to `CCC1(N)CCN(C(=O)c2ccc(-c3ccc4ncc(-c5ccc(C#N)cc5)n4c3)cc2)CC1` [Example 113, 4-(6-(4-(4-amino-4-ethylpiperidine-1-carbonyl)phenyl)imidazo [1,2-a]pyridin-3-yl)benzonitrile], the half-inhibitory concentration (IC50) was less than 1 µM.
On the same count and under the same terms, with `N#Cc1ccc(-c2cnc3ccc(-c4ccc(C(=O)NCC(=O)N5CCOCC5)cc4)cn23)cc1` [Example 115, 4-(3-(4-cyanophenyl)imidazo[1,2-a]pyridin-6-yl)-N-(2-morpholino-2-oxoethyl)benzamide] the figure was less than 1 µM.
For `N#Cc1ccc(-c2cnc3ccc(-c4ccc(C(=O)NCCN5CCOCC5)cc4)cn23)cc1` [Example 116, 4-(3-(4-cyanophenyl)imidazo[1,2-a]pyridin-6-yl)-N-(2-morpholinoethyl)benzamide], the IC50 was less than 1 µM.
On the same count and under the same terms, with `N#Cc1ccc(-c2cnc3ccc(-c4ccc(C(=O)N5CCC6(CCCCN6)CC5)cc4)cn23)cc1` [Example 117, 4-(6-(4-(1,9-diazaspiro[5.5]undecane-9-carbonyl)phenyl)imidazo[1,2-a]pyridin-3-yl)benzonitrile] the figure was less than 1 µM.
Turning to `CC(=O)N1CCCCC12CCN(C(=O)c1ccc(-c3ccc4ncc(-c5ccc(C#N)cc5)n4c3)cc1)CC2` [Example 118, 4-(6-(4-(1-acetyl-1,9-diazaspiro[5.5]undecane-9-carbonyl)phenyl)imidazo[1,2-a]pyridin-3-yl)benzonitrile], the IC50 is less than 1 µM.
Still for that read-out and setting: next, `CN1CCCCC12CCN(C(=O)c1ccc(-c3ccc4ncc(-c5ccc(C#N)cc5)n4c3)cc1)CC2` [Example 119, 4-(6-(4-(1-methyl-1,9-diazaspiro [5.5]undecane-9-carbonyl)phenyl)imidazo[1,2-a]pyridin-3-yl)benzonitrile]: less than 1 µM; `CN(C(=O)c1ccc(-c2ccc3ncc(-c4ccc(C#N)cc4)n3c2)cc1)c1ccncc1` [Example 122, 4-(3-(4-cyanophenyl)imidazo[1,2-a]pyridin-6-yl)-N-methyl-N-(pyridin-4-yl)benzamide]: less than 1 µM.
On the same count and under the same terms, next, `N#Cc1ccc(-c2cnc3ccc(-c4ccc(C(=O)N5CCC(CN)CC5)cc4)cn23)cc1` [Example 123, 4-(6-(4-(4-(aminomethyl)piperidine-1-carbonyl)phenyl)imidazo[1,2-a]pyridin-3-yl)benzonitrile]: less than 1 µM; `N#Cc1ccc(-c2cnc3ccc(-c4ccc(C(=O)N5CCC(CCN)CC5)cc4)cn23)cc1` [Example 124, 4-(6-(4-(4-(2-aminoethyl)piperidine-1-carbonyl)phenyl)imidazo[1,2-a]pyridin-3-yl)benzonitrile]: less than 1 µM.
Turning to `N#Cc1ccc(-c2cnc3ccc(-c4ccc(C(=O)N5CCN(C(=O)c6ccccc6)CC5)cc4)cn23)cc1` [Example 126, 4-(6-(4-(4-benzoylpiperazine-1-carbonyl)phenyl)imidazo[1,2-a]pyridin-3-yl)benzonitrile], the IC50 was less than 1 µM.
For the compound `N#Cc1ccc(-c2cnc3ccc(-c4ccc(C(=O)N5CCN(Cc6ccc(C(N)=O)cc6)CC5)cc4)cn23)cc1` [Example 129, 4-((4-(4-(3-(4-cyanophenyl)imidazo[1,2-a]pyridin-6-yl)benzoyl)piperazin-1-yl)methyl)benzamide], the IC50 is less than 1 µM.
In the case of `CN1CCN(C(=O)c2ccc(-c3ccc4ncc(-c5ccc(C#N)cc5)n4c3)cc2)CC1=O` [Example 130, 4-(6-(4-(4-methyl-3-oxopiperazine-1-carbonyl)phenyl)imidazo[1,2-a]pyridin-3-yl)benzonitrile], the IC50 is less than 1 µM.
Turning to `N#Cc1ccc(-c2cnc3ccc(-c4ccc(C(=O)N5CCC(N6CCOCC6)CC5)cc4)cn23)cc1` [Example 134, 4-(6-(4-(4-morpholinopiperidine-1-carbonyl)phenyl)imidazo[1,2-a]pyridin-3-yl)benzonitrile], the IC50 was less than 1 µM.
Still for that read-out and setting: next, `Cc1nnc(C2(C)CCN(C(=O)c3ccc(-c4ccc5ncc(-c6ccc(C#N)cc6)n5c4)cc3)CC2)o1` [Example 135, 4-(6-(4-(4-methyl-4-(5-methyl-1,3,4-oxadiazol-2-yl)piperidine-1-carbonyl)phenyl)imidazo [1,2-a]pyridin-3-yl)benzonitrile]: less than 1 µM; `Cc1cc2ncc(-c3ccc(C#N)cc3)n2cc1-c1ccc(C(=O)N2CCN(C)CC2)cc1` [Example 138, 4-(7-methyl-6-(4-(4-methylpiperazine-1-carbonyl)phenyl)imidazo[1,2-a]pyridin-3-yl)benzonitrile]: less than 1 µM; `CN1CCN(C(=O)c2ccc(-c3ccc4ncc(-c5ccc(C#N)cc5)n4c3)c(F)c2)CC1` [Example 140, 4-(6-(2-fluoro-4-(4-methylpiperazine-1-carbonyl)phenyl)imidazo [1,2-a]pyridin-3-yl)benzonitrile]: less than 1 µM.
Still for that read-out and setting: next, `CN1CCN(C(=O)c2ccc(-c3ccc4ncc(-c5ccc(C#N)cc5)n4c3)cc2Cl)CC1` [Example 141, 4-(6-(3-chloro-4-(4-methylpiperazine-1-carbonyl)phenyl)imidazo[1,2-a]pyridin-3-yl)benzonitrile]: less than 1 µM.
Same read-out and setting: next, `CN1CCN(C(=O)c2ccc(-c3ccc4ncc(-c5ccc(C#N)cc5)n4c3)cc2F)CC1` [Example 142, 4-(6-(3-fluoro-4-(4-methylpiperazine-1-carbonyl)phenyl)imidazo[1,2-a]pyridin-3-yl)benzonitrile]: less than 1 µM.
For `CN1CCN(C(=O)c2ccc(-c3ccc4ncc(-c5ccc(C#N)cc5)n4c3)cc2C(F)(F)F)CC1` [Example 145, 4-(6-(4-(4-methylpiperazine-1-carbonyl)-3-(trifluoromethyl)phenyl)imidazo[1,2-a]pyridin-3-yl)benzonitrile], the half-inhibitory concentration (IC50) was less than 1 µM.
On the same count and under the same terms, with `CN1CCN(C(=O)c2ccc(-c3ccc4ncc(-c5ccc(C#N)cc5)n4c3)cc2N)CC1` [Example 146, 4-(6-(3-amino-4-(4-methylpiperazine-1-carbonyl)phenyl)imidazo [1,2-a]pyridin-3-yl)benzonitrile] the figure was less than 1 µM.
The same measure, in the same setting: next, `CN1CCN(C(=O)c2ccc(-c3ccc4ncc(-c5ccc(C#N)cc5)n4c3)cc2N(C)C)CC1` [Example 147, 4-(6-(3-(dimethylamino)-4-(4-methylpiperazine-1-carbonyl)phenyl)imidazo[1,2-a]pyridin-3-yl)benzonitrile]: less than 1 µM; `CC(=O)Nc1cc(-c2ccc3ncc(-c4ccc(C#N)cc4)n3c2)ccc1C(=O)N1CCN(C)CC1` [Example 149, N-(5-(3-(4-cyanophenyl)imidazo[1,2-a]pyridin-6-yl)-2-(4-methylpiperazine-1-carbonyl)phenyl)acetamide]: less than 1 µM; `CNc1cc(-c2ccc3ncc(-c4ccc(C#N)cc4)n3c2)ccc1C(=O)N1CCN(C)CC1` [Example 150, 4-(6-(3-(methylamino)-4-(4-methylpiperazine-1-carbonyl)phenyl)imidazo [1,2-a]pyridin-3-yl)benzonitrile]: less than 1 µM.
In the case of `CNc1cc(-c2ccc3ncc(-c4ccc(C#N)cc4)n3c2)ccc1C(=O)N1CCOCC1` [Example 151, 4-(6-(3-(methylamino)-4-(morpholine-4-carbonyl)phenyl)imidazo[1,2-a]pyridin-3-yl)benzonitrile], the IC50 was less than 1 µM.
For `CN1CCN(C(=O)c2ccc(-c3ccc4ncc(-c5ccc(C#N)cc5)n4c3)c(Cl)c2)CC1` [Example 153], the IC50 is less than 1 µM.
On the same count and under the same terms, with `Cc1cc(-c2ccc3ncc(-c4ccc(C#N)cc4)n3c2)ccc1C(=O)N1CCOCC1` [Example 156] the figure was less than 1 µM; with `CN1CCN(C(=O)c2ccc(-c3ccc4ncc(-c5ccc(C#N)cc5)n4c3)cc2OC(F)(F)F)CC1` [Example 157], less than 1 µM; with `COc1cc(-c2ccc3ncc(-c4ccc(C#N)cc4)n3c2)ccc1C(=O)N1CCOCC1` [Example 158], less than 1 µM.

Staying with this assay, now noted: eIF4E Ser209 phosphorylation, Hela cells, 2 hours; read-out: IC50 Hela.
Consider `CN1CCN(C(=O)c2ccc(-c3ccc4ncc(-c5ccc(C#N)cc5)n4c3)cc2O)CC1` [Example 143], for which the IC50 is less than 1 µM.
Same read-out and setting: next, `CN1CCN(C(=O)c2ccc(-c3ccc4ncc(-c5ccc(C#N)cc5)n4c3)c(O)c2)CC1` [Example 144]: less than 1 µM.
